# From patent US11718864B2, “Cells and method of cell culture” (PFIZER INC., priority 2015, dated 2023)
# How the values were obtained:
# Format in all cases: cell-based, Chinese hamster
# [1] = system: GS-CHO cells (Cell line A); assay: Growth (viable cell density) of GS-CHO cells in Medium A spiked with putative inhibitor metabolites; details: single metabolite
# Method: GS-CHO cells producing a recombinant antibody were inoculated at low viable cell densities (0.1E6 cells/mL) in various conditions in 5 ml volume, 6-well plate cultures. […] The pH of the Medium A, spiked-in with any one of the nine metabolites or any combination of the nine metabolites, was adjusted to 7 before inoculating the cells (on day 0).
# For indolelactate, the stock solution (500 mM) was prepared in DMSO. […] All the conditions were run in duplicates or triplicates. Growth of the cells in above described conditions was monitored for 5 or 6 days.
# [2] = system: CHO cell line A; assay: Growth of CHO cell line A in Medium A supplemented with 2-methylbutyrate or isobutyrate; details: at concentrations higher than 1 mM; monitored 5 days
# Method: CHO cell line A producing a recombinant antibody were inoculated at low cell densities (0.1E6 cells/mL) in various conditions in triplicates in 6-well plate cultures. The working volume for each well on day 0 was 4 mL. […] The 6-well plates were incubated on a shaking platform in 36.5 C and 5% carbon dioxide. Cell growth in all the conditions was monitored for 5 days.
# [3] = system: BCAT1; assay: Western blot of BCAT1 protein after transient miRNA transfection, CHO parental cell line; details: CHO parental cell line transient transfections, vs untransfected and negative control miRNA
# Method: miRNA knockdown works by expressing small RNA sequences (approximately 20-25 bases) that are complimentary to a target gene sequence (e.g. BCAT1). The miRNA binds to the messenger RNA (mRNA) of the target gene forming a region of double stranded RNA. […] Micro RNA knockdown of BCAT1 was performed using the BLOCK-iT Inducible Pol II miR RNAi Expression Vector Kit with EmGFP (Invitrogen). Five miRNA oligonucleotide pairs (complementary top and bottom strand of BCAT1) were designed using an online tool called Block-iT RNAi Designer and the DNA oligonucleotides were prepared by Integrated DNA technologies. The oligonucleotide pairs were annealed and ligated into the pcDNA™6.2-GW/EmGFP-miR vector. The vectors (five of them) were sequence confirmed by WyzerBiosciences (Cambridge, Mass.). The five miRNA vectors or a negative control vector named pcDNA™6.2-GW/EmGFP-miR-neg (provided by Invitrogen with the kit) were transfected into CHO parental cell line or CHO cell line B using the GenePulser XCell eletroporator (BioRad) and were left to recover for two days. After two days, cells were either subjected to selection pressure by antibiotic (blasticidin, 10 ug/mL) for generation of stable cell pools (see Example 24), or cell lysates from the transfected cells (or untransfected cells) were prepared in M-PER protein extraction reagent (Thermo Fisher) supplemented with cOmplete, Mini, EDTA-free Protease Inhibitor Cocktail (Roche). The samples were analyzed by western blot using the Novex NuPage system (Thermo Fisher). The system provides polyacrylamide gels, sample loading buffer, sample reductant, gel running buffer, protein mass standard, nitrocellulose membrane, and chemiluminescence detection reagent. The blots were probed with a rabbit polyclonal anti-BCAT1 antibody (AbCam, Cat#ab110761) or a B-Actin antibody (AbCam, Cat#ab8227). The western blots were imaged using a BioRad ChemiDoc system and analyzed for levels of B-actin and BCAT1.
# [4] = at concentrations higher than 0.5 mM or 1 mM
molecule,measurement,setting,value
O=C(O)c1c[nH]c2ccccc12 [Indolecarboxylic acid],effect on growth of cells,"[1]; at concentrations of 1 mM or lower, growth monitored 5 or 6 days",potent negative effect on growth
CC(C)C(=O)O [isobutyrate],cell growth,[2],suppressed
O=CO [Formate],effect on growth of cells,[1]; at concentrations 2 mM and beyond,negative effect on growth
O=C(O)C(O)Cc1c[nH]c2ccccc12 (stereo not drawn) [Indolelactate],effect on growth of cells,"[1]; at concentrations of 3 mM or below, DMSO controls",little or no effect on growth
miRNA Seq 2.1a: BCAT1 miRNA sequence TCTGCTGTGAGGACCACTTTG expressed from pcDNA6.2-GW/EmGFP-miR vector (listed as Cricetulus griseus),BCAT1 protein level (western blot),[3],lower level of BCAT1 protein
miRNA Seq 4.1a: BCAT1 miRNA sequence CACGATGAATCTGTTCCTCTA expressed from pcDNA6.2-GW/EmGFP-miR vector (listed as Cricetulus griseus),BCAT1 protein level (western blot),[3],lower level of BCAT1 protein
N[C@@H](CCS)C(=O)O [homocysteine],effect on growth of cells,[1]; [4],Modest inhibition of growth
O=C(O)C(O)Cc1ccc(O)cc1 (stereo not drawn) [3-(4-hydroxyphenyl)lactate],effect on growth of cells,[1]; [4],Modest inhibition of growth
miRNA Seq 3.1a: BCAT1 miRNA sequence AGTGGGCACGATGAATCTGTT expressed from pcDNA6.2-GW/EmGFP-miR vector (listed as Cricetulus griseus),BCAT1 protein level (western blot),[3],lower level of BCAT1 protein
O=C(O)[C@H](O)Cc1ccccc1 [L-phenyllactate],effect on growth of cells,[1]; at 1 mM concentration,mild effect on growth
miRNA Seq 5.1a: BCAT1 miRNA sequence CTTGGGCAAACTGACTGATAT expressed from pcDNA6.2-GW/EmGFP-miR vector (listed as Cricetulus griseus),BCAT1 protein level (western blot),[3],lower level of BCAT1 protein
CCC(O)C(=O)O (stereo not drawn) [2-hydroxybutyric acid],effect on growth of cells,[1]; [4],Modest inhibition of growth
